The source of these data is the supplement of paper PMC10290057.

In test [1] the test system is HCT116. As to the kind of experiment: AC50 cell viability (CellTiter-Glo); higher = less potent. Conditions: 48 h. Background: In ATP-based viability assays light output follows the ATP content of the culture.
Test [2] has as its system HCT116. As to the kind of experiment: efficacy (fitted maximal change in viability relative to DMSO control); higher = less cytotoxic (negative = loss of viability). The settings on record: 48 h.

The structures appear in SMILES notation. Values joined by “and” are separate entries in the source; they are usually repeats but may differ in a detail not shown here. Equal entries are not always repeated. Structures can show the parent of a compound that is named as a salt.
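Throughout, for AC50 cell viability (CellTiter-Glo): HCT116 colorectal carcinoma cells screened at five concentrations per compound, luminescent viability scaled between DMSO wells and empty wells on each plate, curves fitted per compound.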
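Throughout, for efficacy (fitted maximal change in viability relative to DMSO control): Luminescence-based viability readout, five doses per compound, normalized against on-plate DMSO and empty-well controls, followed by dose-response curve fitting for every drug.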

As to `O=C(c1c(F)ccc(N[S+](=O)([O-])N2CC[C@@H](F)C2)c1F)c1c[nH]c2ncc(-c3cnc(C4CC4)nc3)cc12` [PLX-8394], the AC50 cell viability in test [1] was determined as 13.2 µM. The efficacy in test [2] is -51.7%.

Molecule `Nc1ncnc2c1c(-c1cnc3[nH]ccc3c1)nn2C1CCCC1` [PP-121] came in with an AC50 cell viability in test [1] of 2.63 µM. Further, the efficacy in test [2] was -86.5%.

In turn, `CN[S+](=O)([O-])c1ccc2c(c1)/C(=C/c1[nH]c3c(c1CCCN1CCN(C)CC1)CCCC3)C(=O)N2` [PRP01-012] yielded an AC50 cell viability in test [1] of 14.8 µM. In addition, the efficacy in test [2] is -103%.

`CCc1ccc(C(=O)Nc2cc(CN3CCN(C)CC3)cc(C(F)(F)F)c2)cc1C#Cc1cnc2ccnn2c1` [PRP003-013] returned an AC50 cell viability in test [1] of 4.68 µM. Besides, the efficacy in test [2] was -100%.

Consider `COC(C)(C)CCn1nc(Nc2c(C)cccc2C)c2cnc(Nc3ccc(OCCN4CCCC4)c(F)c3)nc21` [PRP003-032], for which the AC50 cell viability in test [1] is 14.8 µM. In test [2], the efficacy is -122%.

As to `FC(F)(F)c1ccc(Nc2nc(-c3c(C(F)(F)F)nc4ccccn34)cs2)cc1` [PTC-691], the AC50 cell viability in test [1] was found to be 0.332 µM. For the same molecule, in test [2], the efficacy is -73.4%.

`CC(C)NCCCn1c(Sc2cc(Cl)cc(Cl)c2)nc2c(N)ncnc21` [PU-WS-13]: in test [1], the AC50 cell viability worked out at 20.9 µM. Also, the efficacy in test [2] was -82.4%.

On to `CCC(C)SSc1ncc[nH]1` (stereo not given) [PX-12], for which the AC50 cell viability in test [1] was 18.6 µM. Besides, in test [2], the efficacy was -88.8%.

Regarding `COC1=CC=C2Nc3cc(Cl)ccc3C(N=C3C=C(CN4CCCC4)C(=O)C(CN4CCCC4)=C3)=C2N1` [PYRONARIDINE TETRAPHOSPHATE], the AC50 cell viability in test [1] was 9.34 µM. Moreover, in test [2], the efficacy is -76.4%.

As to `C1=CC2=N/C(=N\c3ccc(OCCN4CCCC4)c(c3)COC/C=C/COCc3cccc2c3)N1` [Pacritinib], the AC50 cell viability in test [1] was 1.86 µM. The efficacy in test [2] was -89.9%.

As to `CC(=O)C\1=C(/C)C2=CN=C(NC3=CC=C(C=N3)N4CCNCC4)N=C2N(C5CCCC5)C1=O` [Palbociclib], the AC50 cell viability in test [1] amounted to 16.6 µM. In addition, the efficacy in test [2] was -109%.

Take `Cc1[nH]c2ccccc2c1CCNCc1ccc(/C=C/C(=O)NO)cc1` [Panobinostat]: in test [1], the AC50 cell viability was 0.0468 µM. Moreover, in test [2], the efficacy is -87.7%.

The molecule `COc1ccc(Cc2nccc3cc(OC)c(OC)cc23)cc1OC` [Papaverine hydrochloride] yielded an AC50 cell viability in test [1] of 4.17 µM. For the same molecule, the efficacy in test [2] is -61.1%.

With `CCCCc1ccc2[nH]c(NC(=O)OC)nc2c1` [Parbendazole], the AC50 cell viability in test [1] turned out to be 0.105 µM. The efficacy in test [2] was -63.1%.

In test [1], `[2H]C([2H])([2H])C(O)([C@@H](C)/C=C/[C@@H](C)[C@H]1CC[C@H]2/C(=C/C=C3C[C@@H](O)C[C@H](O)C3)CCC[C@]12C)C([2H])([2H])[2H]` [Paricalcitol-D6 (ABT-358)] gave an AC50 cell viability of 18.6 µM. The efficacy in test [2] was -54%.

Molecule `ClC1=CC=C(CCCOC/2=N/NC(=O)C(=C2NCC3=CN=CC=C3)/Br)C=C1` [Parogrelil] came in with an AC50 cell viability in test [1] of 18.6 µM. The efficacy in test [2] is -86.2%.

As for `C=C1C(=O)O[C@@H]2[C@H]3O[C@]3(C)CC/C=C(\C)CC[C@@H]12` [Parthenolide], the AC50 cell viability in test [1] stood at 13.2 µM. In addition, the efficacy in test [2] is -97.4%.

For the molecule `C[C@@H]1CN[C@H]2[C@@H](C)[C@@]3(CC[C@H]4[C@@H]5CC[C@@H]6C[C@@H](CC[C@]6(C)[C@H]5C\C4=C(C)\C3)N[S+](C)([O-])=O)O[C@@H]2C1` [Patidegib], the AC50 cell viability in test [1] was 14.8 µM. Further, the efficacy in test [2] was -94.4%.

Consider `Cc1ccc(Nc2nccc(N(C)c3ccc4c(C)n(C)nc4c3)n2)cc1[S+](N)(=O)[O-]` [Pazopanib], for which the AC50 cell viability in test [1] stood at 5.25 µM. Further, the efficacy in test [2] was -51.5%.

In turn, `NC(=O)c1cnc2[nH]ccc2c1NC1C2CC3C[C@H]1CC(O)(C3)C2` (stereo not given in full) [Peficitinib] returned an AC50 cell viability in test [1] of 7.42 µM. Besides, the efficacy in test [2] was -67.2%.

In test [1], `CCOc1cc2ncc(C#N)c(Nc3ccc(F)c(Cl)c3)c2cc1NC(=O)/C=C/CN(C)C` [Pelitinib] showed an AC50 cell viability of 5.9 µM. Besides, the efficacy in test [2] was -97.7%.

In turn, `NC/1=N/C(=O)C2=C([NH]C=C2CCC3=CC=C(C=C3)C(=O)N[C@@H](CCC(O)=O)C(O)=O)N1` [Pemetrexed] returned an AC50 cell viability in test [1] of 0.742 µM. Further, the efficacy in test [2] was -40.7%.

On to `N=C(N)c1ccc(OCCCCCOc2ccc(C(=N)N)cc2)cc1` [Pentamidine isethionate], for which the AC50 cell viability in test [1] was 20.9 µM. In addition, the efficacy in test [2] is -54.5%.

`C1CCC(C(CC2CCCCN2)C2CCCCC2)CC1` (stereo not given) [Perhexiline] showed an AC50 cell viability in test [1] of 6.61 µM. The efficacy in test [2] is -92.2%.

Molecule `Cc1ccc(-n2nc(C(C)(C)C)cc2N/C(O)=N/Cc2cc(F)ccc2Oc2ccc3c(cnn3CCO)c2)cc1` [Pexmetinib] returned an AC50 cell viability in test [1] of 10.5 µM. Besides, in test [2], the efficacy was -98.4%.

In test [1], `N=C(N)NC(=N)NCCc1ccccc1` [Phenformin hydrochloride] came in with an AC50 cell viability of 13.2 µM. Moreover, the efficacy in test [2] was -38.6%.

In test [1], `CC1=CC=C(C=C1)N(C\C2=N\CCN2)C3=CC=CC(=C3)O` [Phentolamine mesilate] gave an AC50 cell viability of 20.9 µM. Besides, in test [2], the efficacy was -60%.

In test [1], `Oc1cc(O)cc(/C=C/c2ccc(O)c(O)c2)c1` [Piceatannol] returned an AC50 cell viability of 26.3 µM. Also, the efficacy in test [2] was -69%.

On to `CC\1=C/C=C\C=[N]1[Pt](N)(Cl)Cl` [Picoplatin], for which the AC50 cell viability in test [1] was found to be 20.9 µM. Also, in test [2], the efficacy was -50.8%.

In test [1], `COc1cc([C@@H]2c3cc4c(cc3[C@H](O)[C@H]3COC(=O)[C@@H]23)OCO4)cc(OC)c1OC` [Picropodophyllin] gave an AC50 cell viability of 0.417 µM. Also, the efficacy in test [2] is -56.6%.

In turn, `C[S+](=O)([O-])N1CCN(Cc2cc3nc(-c4cccc5[nH]ncc45)nc(N4CCOCC4)c3s2)CC1` [Pictilisib] had an AC50 cell viability in test [1] of 3.32 µM. In addition, in test [2], the efficacy is -78.3%.

In test [1], `COc1ccc(Cl)c(Nc2nc3ccccc3nc2N[S+](=O)([O-])c2cccc(NC(=O)C(C)(C)N)c2)c1` [Pilaralisib] gave an AC50 cell viability of 16.6 µM. Besides, the efficacy in test [2] was -39.5%.

On to `O=C(NC[C@H](O)CO)c1ccncc1Nc1ccc(I)cc1F` [Pimasertib], for which the AC50 cell viability in test [1] is 0.118 µM. In addition, the efficacy in test [2] is -44.3%.

For `COC1=CC=C(C=C1)C2=NC3=CC(=CC=C3[NH]2)/C4=N/NC(=O)CC4C` (stereo not given) [Pimobendan], in test [1], the AC50 cell viability is 9.34 µM. Moreover, the efficacy in test [2] was -48.6%.

`c1ccc(-c2cc(CCC3CCNCC3)c3ccccc3n2)cc1` [Pipequaline] yielded an AC50 cell viability in test [1] of 16.6 µM. In addition, the efficacy in test [2] is -108%.

`O=C(/C=C/C=C/c1ccc2c(c1)OCO2)N1CCCCC1` [Piperine]: in test [1], the AC50 cell viability was 20.9 µM. The efficacy in test [2] is -46%.

On to `COc1cccc2c1C(=O)c1c(O)c3c(c(O)c1C2=O)C[C@@](O)(C(=O)CO)C[C@@H]3O[C@H]1C[C@H](N)[C@H](O[C@H]2CCCCO2)[C@H](C)O1` [Pirarubicin], for which, in test [1], the AC50 cell viability was 0.934 µM and 0.468 µM. Further, the efficacy in test [2] was -90.5% and -67.3%.

As for `O=C([O-])C[C@H](O)C[C@H](O)/C=C/c1c(C2CC2)nc2ccccc2c1-c1ccc(F)cc1` [Pitavastatin calcium], in test [1], the AC50 cell viability came out at 14.8 µM. In addition, in test [2], the efficacy was -103%.

The molecule `CN1CC/C(CC1)=C3\c4ccccc4CCc2sccc23` [Pizotifen] returned an AC50 cell viability in test [1] of 23.5 µM. Besides, the efficacy in test [2] was -73.5%.

In the case of `CC(C)(C)c1[nH]cnc1/C=c1\[nH]c(=O)/c(=C/c2ccccc2)[nH]c1=O` [Plinabulin], the AC50 cell viability in test [1] came out at 0.0525 µM. For the same molecule, the efficacy in test [2] is -58.4%.

`Cc1cc(Nc2ncc3c(n2)N(C)C(=O)N(c2cc(NC(=O)c4cccc(C(F)(F)F)c4)ccc2C)C3)n(C)n1` [Pluripotin] registered an AC50 cell viability in test [1] of 0.235 µM. Besides, the efficacy in test [2] is -74%.

In turn, `CC[C@@H]([C@H](C)O)N1\N=C/N(C1=O)C2=CC=C(C=C2)N3CCN(CC3)C4=CC=C(OCC5CO[C@@](C5)(C[N]6C=NC=N6)C7=C(F)C=C(F)C=C7)C=C4` (stereo not given in full) [Posaconazole] displayed an AC50 cell viability in test [1] of 6.61 µM. In addition, the efficacy in test [2] is -58.4%.

For the molecule `C=CC(=O)N1CCC(Oc2cc3c(Nc4ccc(Cl)c(Cl)c4F)ncnc3cc2OC)CC1` [Poziotinib], the AC50 cell viability in test [1] was 18.6 µM. The efficacy in test [2] is -106%.

In test [1], `CCCCc1nc2cc(/C=C/C(=O)NO)ccc2n1CCN(CC)CC` [Pracinostat] came in with an AC50 cell viability of 0.372 µM. Further, the efficacy in test [2] was -86.8%.

Molecule `C#CCC(Cc1cnc2nc(N)nc(N)c2n1)c1ccc(C(=O)N[C@@H](CCC(=O)O)C(=O)O)cc1` (stereo not given in full) [Pralatrexate] yielded an AC50 cell viability in test [1] of 0.00468 µM. Besides, in test [2], the efficacy is -91.1%.

On to `COc1ccc(C(=O)c2c(C)n(CCN3CCOCC3)c3ccccc23)cc1` [Pravadoline], for which the AC50 cell viability in test [1] came out at 1.32 µM. Moreover, in test [2], the efficacy is -67.1%.

Take `COc1cccc(OCCCN)c1-c1cc(Nc2cnc(C#N)cn2)n[nH]1` [Prexasertib]: in test [1], the AC50 cell viability is 3.72 µM. Besides, in test [2], the efficacy is -111%.

Turning to `CC(=O)C1CCC2C3CC\C4=C\C(=O)CCC4(C)C3CCC12C` (stereo not given) [Progesterone], the AC50 cell viability in test [1] is 16.6 µM. Further, the efficacy in test [2] was -53.8%.

In the case of `C[C@@H]1O[C@@H](O[C@@H]2C=C3CC[C@@H]4[C@H](CC[C@]5(C)[C@@H](c6ccc(=O)oc6)CC[C@]45O)[C@@]3(C)CC2)[C@H](O)[C@H](O)[C@H]1O` [Proscillaridin], the AC50 cell viability in test [1] was determined as 0.00833 µM. The efficacy in test [2] was -82.5%.

With `c1ccc2c(Oc3nc(Nc4ccc(N5CCOCC5)cc4)c4ncn(C5CCCCC5)c4n3)cccc2c1` [Purmorphamine], the AC50 cell viability in test [1] was 11.8 µM. Further, the efficacy in test [2] is -34.8%.
